Results from the kinase profiling compilation of Christmann-Franck et al. (2016).

Assays:
Assay in all cases: split-luciferase competition binding
[1] = tested on: PRKACA (mouse); details: compound 10.0 µM; accession and sequence are those of the human protein
[2] = target: AURKC (human) (UniProt Q9UQB9); details: compound 10.0 µM
[3] = target: AURKA (human) (UniProt O14965); details: compound 10.0 µM
[4] = target: PRKCH (human) (UniProt P24723); details: compound 10.0 µM
[5] = target: RPS6KA1 KD1 (human) (UniProt Q15418); details: compound 10.0 µM
[6] = target: PRKCI (human) (UniProt P41743); details: compound 10.0 µM
[7] = target: RPS6KA3 KD1 (human) (UniProt P51812); details: compound 10.0 µM
[8] = target: RPS6KA5 KD1 (human) (UniProt O75582); details: compound 10.0 µM
[9] = target: PRKACB (human) (UniProt P22694); details: compound 10.0 µM
[10] = target: STK32B (human) (UniProt Q9NY57); details: compound 10.0 µM
[11] = target: PRKX (human) (UniProt P51817); details: compound 10.0 µM
[12] = target: PRKCQ (human) (UniProt Q04759); details: compound 10.0 µM
[13] = target: PRKCD (human) (UniProt Q05655); details: compound 10.0 µM
[14] = target: RPS6KA6 KD1 (human) (UniProt Q9UK32); details: compound 10.0 µM
[15] = target: DMPK (human) (UniProt Q09013); details: compound 10.0 µM
[16] = target: PRKCE (human) (UniProt Q02156); details: compound 10.0 µM
[17] = target: SGK3 (human) (UniProt Q96BR1); details: compound 10.0 µM
[18] = target: AKT3 (human) (UniProt Q9Y243); details: compound 10.0 µM
[19] = target: PRKCG (human) (UniProt P05129); details: compound 10.0 µM
[20] = target: RPS6KA4 KD1 (human) (UniProt O75676); details: compound 10.0 µM
[21] = target: PKN1 (human) (UniProt Q16512); details: compound 10.0 µM
[22] = target: SGK2 (human) (UniProt Q9HBY8); details: compound 10.0 µM
[23] = target: PDPK1 (human) (UniProt O15530); details: compound 10.0 µM
[24] = target: RPS6KA2 KD1 (human) (UniProt Q15349); details: compound 10.0 µM
[25] = target: AURKB (human) (UniProt Q96GD4); details: compound 10.0 µM
[26] = target: AKT1 (human) (UniProt P31749); details: compound 10.0 µM
[27] = target: AKT2 (human) (UniProt P31751); details: compound 10.0 µM

RPS6KA1 KD1 (human), sequence (Q15418 whole entry, looked up): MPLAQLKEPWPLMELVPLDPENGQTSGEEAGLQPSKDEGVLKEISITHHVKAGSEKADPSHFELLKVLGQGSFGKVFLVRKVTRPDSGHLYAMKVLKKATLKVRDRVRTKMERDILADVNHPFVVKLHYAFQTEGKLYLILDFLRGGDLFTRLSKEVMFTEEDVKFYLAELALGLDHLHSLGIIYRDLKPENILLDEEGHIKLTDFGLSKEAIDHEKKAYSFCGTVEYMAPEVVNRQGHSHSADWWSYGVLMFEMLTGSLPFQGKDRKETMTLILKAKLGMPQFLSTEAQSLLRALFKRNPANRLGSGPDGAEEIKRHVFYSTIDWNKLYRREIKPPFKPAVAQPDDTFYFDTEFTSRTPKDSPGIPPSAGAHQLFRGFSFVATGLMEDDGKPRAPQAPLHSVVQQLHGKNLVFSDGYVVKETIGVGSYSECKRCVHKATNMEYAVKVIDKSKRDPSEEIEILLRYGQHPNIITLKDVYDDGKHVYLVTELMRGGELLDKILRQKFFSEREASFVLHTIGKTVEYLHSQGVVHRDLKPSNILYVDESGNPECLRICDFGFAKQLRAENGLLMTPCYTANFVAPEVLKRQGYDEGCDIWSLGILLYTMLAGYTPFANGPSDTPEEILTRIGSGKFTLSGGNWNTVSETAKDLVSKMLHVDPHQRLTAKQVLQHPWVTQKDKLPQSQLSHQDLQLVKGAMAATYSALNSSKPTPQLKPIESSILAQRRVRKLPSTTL
AURKB (human), sequence (Q96GD4 whole entry, looked up): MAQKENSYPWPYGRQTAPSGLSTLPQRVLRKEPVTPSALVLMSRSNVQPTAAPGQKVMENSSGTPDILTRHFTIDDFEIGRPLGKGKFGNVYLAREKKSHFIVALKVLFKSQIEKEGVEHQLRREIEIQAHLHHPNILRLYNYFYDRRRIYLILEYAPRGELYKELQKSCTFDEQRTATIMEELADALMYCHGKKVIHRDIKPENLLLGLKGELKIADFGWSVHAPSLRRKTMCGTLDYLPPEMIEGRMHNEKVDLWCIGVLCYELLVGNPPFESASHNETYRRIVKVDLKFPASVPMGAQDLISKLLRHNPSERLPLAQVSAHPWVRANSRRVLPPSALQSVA
AURKA (human), sequence (O14965 whole entry, looked up): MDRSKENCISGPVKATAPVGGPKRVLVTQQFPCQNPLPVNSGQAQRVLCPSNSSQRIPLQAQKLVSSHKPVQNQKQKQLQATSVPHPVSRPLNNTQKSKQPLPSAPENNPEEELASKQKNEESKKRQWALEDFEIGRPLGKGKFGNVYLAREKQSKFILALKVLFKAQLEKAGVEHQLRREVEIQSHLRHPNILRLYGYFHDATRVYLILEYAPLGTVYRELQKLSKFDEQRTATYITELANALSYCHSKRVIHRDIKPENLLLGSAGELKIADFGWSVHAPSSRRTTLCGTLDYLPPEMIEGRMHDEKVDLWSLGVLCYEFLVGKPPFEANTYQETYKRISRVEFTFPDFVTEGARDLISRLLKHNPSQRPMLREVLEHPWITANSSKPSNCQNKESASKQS
AURKC (human), sequence (Q9UQB9 whole entry, looked up): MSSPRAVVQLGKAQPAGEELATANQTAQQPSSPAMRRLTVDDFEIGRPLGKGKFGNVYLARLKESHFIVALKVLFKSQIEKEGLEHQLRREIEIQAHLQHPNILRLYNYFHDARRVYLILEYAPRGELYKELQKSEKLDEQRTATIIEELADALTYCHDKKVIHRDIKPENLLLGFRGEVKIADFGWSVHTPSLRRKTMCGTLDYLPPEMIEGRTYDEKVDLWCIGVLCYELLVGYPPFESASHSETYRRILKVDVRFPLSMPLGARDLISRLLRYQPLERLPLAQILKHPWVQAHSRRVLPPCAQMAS
PRKCD (human), sequence (Q05655 whole entry, looked up): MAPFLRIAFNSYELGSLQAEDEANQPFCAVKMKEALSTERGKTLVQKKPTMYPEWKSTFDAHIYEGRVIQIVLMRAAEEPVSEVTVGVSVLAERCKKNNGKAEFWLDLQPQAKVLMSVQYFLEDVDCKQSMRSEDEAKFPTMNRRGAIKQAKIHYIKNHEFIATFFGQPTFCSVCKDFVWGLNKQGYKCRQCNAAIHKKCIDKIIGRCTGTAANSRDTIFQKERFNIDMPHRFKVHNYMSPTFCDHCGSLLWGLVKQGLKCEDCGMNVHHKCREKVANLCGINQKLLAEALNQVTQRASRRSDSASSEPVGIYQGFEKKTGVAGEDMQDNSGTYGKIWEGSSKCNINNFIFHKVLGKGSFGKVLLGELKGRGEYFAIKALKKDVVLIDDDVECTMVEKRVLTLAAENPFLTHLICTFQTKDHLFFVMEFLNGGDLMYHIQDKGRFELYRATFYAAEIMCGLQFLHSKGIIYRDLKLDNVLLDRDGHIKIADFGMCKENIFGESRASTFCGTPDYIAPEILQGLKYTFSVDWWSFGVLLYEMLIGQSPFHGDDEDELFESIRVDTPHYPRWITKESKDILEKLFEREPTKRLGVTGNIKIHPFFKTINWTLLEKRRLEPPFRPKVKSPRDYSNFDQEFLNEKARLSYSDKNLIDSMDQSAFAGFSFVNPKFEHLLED
SGK3 (human), sequence (Q96BR1 whole entry, looked up): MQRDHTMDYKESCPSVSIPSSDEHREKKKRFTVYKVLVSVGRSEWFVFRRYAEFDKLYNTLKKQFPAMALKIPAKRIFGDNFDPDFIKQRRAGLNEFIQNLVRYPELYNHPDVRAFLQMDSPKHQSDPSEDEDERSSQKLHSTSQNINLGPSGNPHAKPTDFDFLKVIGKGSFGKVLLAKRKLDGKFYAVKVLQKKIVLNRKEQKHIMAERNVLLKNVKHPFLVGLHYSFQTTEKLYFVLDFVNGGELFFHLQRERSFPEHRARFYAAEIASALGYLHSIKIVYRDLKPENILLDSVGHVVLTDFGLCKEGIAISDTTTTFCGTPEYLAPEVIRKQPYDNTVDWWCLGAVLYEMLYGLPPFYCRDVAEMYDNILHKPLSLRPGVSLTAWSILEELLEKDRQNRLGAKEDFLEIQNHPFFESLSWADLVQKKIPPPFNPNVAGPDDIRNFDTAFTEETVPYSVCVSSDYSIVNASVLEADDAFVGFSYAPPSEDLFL
AKT1 (human), sequence (P31749 whole entry, looked up): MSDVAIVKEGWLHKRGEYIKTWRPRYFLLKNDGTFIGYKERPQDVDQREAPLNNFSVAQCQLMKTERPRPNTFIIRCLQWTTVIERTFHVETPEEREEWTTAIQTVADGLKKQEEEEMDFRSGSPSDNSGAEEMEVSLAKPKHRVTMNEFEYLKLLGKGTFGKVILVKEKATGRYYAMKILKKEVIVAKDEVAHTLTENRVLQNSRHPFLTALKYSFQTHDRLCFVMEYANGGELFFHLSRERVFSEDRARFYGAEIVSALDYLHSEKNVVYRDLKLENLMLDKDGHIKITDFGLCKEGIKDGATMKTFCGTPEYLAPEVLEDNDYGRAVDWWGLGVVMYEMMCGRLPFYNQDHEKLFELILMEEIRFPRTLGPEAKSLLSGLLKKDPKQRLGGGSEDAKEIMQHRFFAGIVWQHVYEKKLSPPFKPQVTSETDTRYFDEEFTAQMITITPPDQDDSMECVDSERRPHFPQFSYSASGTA
DMPK (human), sequence (Q09013 whole entry, looked up): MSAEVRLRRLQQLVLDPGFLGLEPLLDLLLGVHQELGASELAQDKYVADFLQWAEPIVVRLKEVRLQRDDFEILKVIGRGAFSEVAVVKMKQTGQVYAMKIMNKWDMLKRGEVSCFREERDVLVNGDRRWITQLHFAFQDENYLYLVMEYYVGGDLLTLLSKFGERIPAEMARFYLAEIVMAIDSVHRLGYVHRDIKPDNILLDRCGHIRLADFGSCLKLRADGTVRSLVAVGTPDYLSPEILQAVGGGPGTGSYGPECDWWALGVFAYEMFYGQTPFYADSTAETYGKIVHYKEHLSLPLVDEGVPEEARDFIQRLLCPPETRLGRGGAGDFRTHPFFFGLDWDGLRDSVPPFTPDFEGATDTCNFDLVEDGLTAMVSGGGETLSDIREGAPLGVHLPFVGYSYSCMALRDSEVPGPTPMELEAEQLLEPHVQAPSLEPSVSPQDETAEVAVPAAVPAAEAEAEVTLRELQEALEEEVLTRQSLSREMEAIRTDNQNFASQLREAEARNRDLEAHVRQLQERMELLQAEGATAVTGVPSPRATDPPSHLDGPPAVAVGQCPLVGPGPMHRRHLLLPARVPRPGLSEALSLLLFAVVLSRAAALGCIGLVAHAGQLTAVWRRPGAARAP

| SMILES | inhibition [1] [%] | inhibition [2] [%] | inhibition [3] [%] | inhibition [5] [%] | inhibition [6] [%] | inhibition [7] [%] | inhibition [8] [%] | inhibition [9] [%] | inhibition [10] [%] | inhibition [11] [%] | inhibition [12] [%] | inhibition [13] [%] | inhibition [14] [%] | inhibition [15] [%] | inhibition [16] [%] | inhibition [17] [%] | inhibition [18] [%] | inhibition [19] [%] | inhibition [20] [%] | inhibition [21] [%] | also measured |
| --- | --- | --- | --- | --- | --- | --- | --- | --- | --- | --- | --- | --- | --- | --- | --- | --- | --- | --- | --- | --- | --- |
| CO[C@@H]1[C@H](N(C)C(=O)c2ccccc2)C[C@H]2O[C@]1(C)n1c3ccccc3c3c4c(c5c6ccccc6n2c5c31)C(=O)NC4 | 63 | 38 | 26 | 56 | 65 | 79 | 66 | 81 | 56 | 71 | 55 | 52 | 75 | 29 | 57 | 43 | 31 | 52 | 70 | 23 | inhibition [4]: 60%; inhibition [22]: 22%; inhibition [23]: 10%; inhibition [24]: 70%; inhibition [25]: 44%; inhibition [26]: 55% |
| O=C(c1ccc(Nc2nccc(-c3cc4ccccc4s3)n2)cc1)N1CCC(N2CCCC2)CC1 | 12 | 15 | 19 | 4 | 0 | 2 | 0 | 12 | 8 | 29 | 38 | 4 | 10 | 18 | 40 | 62 | 0 | 13 | 0 | 0 | inhibition [27]: 0%; inhibition [22]: 69%; inhibition [23]: 9%; inhibition [24]: 0%; inhibition [25]: 32%; inhibition [26]: 0% |
| O=S(=O)(NCCNC/C=C/c1ccc(Br)cc1)c1cccc2cnccc12 | 67 | 12 | 0 | 0 | 80 | 5 | 0 | 75 | 17 | 87 | 40 | 10 | 5 | 0 | 9 | 41 | 15 | 0 | 10 | 0 | inhibition [4]: 34%; inhibition [27]: 0%; inhibition [23]: 0%; inhibition [24]: 0%; inhibition [25]: 2%; inhibition [26]: 21% |
